Among the data in patent publication US20220009920A1 (GB005, Inc., priority 2020, published 2022) are inhibition values, retold here.

What all share (assay): Large panel kinase profiling
What all share (type): biochemical
Holding throughout (conditions): 1 μM test article, 1 mM ATP

One assay addresses T1, DYRK3 (Homo sapiens, UniProt O43781).
T1 construct: AssayQuant Technologies, Inc. (service laboratory)
T1 sequence (O43781 1-588): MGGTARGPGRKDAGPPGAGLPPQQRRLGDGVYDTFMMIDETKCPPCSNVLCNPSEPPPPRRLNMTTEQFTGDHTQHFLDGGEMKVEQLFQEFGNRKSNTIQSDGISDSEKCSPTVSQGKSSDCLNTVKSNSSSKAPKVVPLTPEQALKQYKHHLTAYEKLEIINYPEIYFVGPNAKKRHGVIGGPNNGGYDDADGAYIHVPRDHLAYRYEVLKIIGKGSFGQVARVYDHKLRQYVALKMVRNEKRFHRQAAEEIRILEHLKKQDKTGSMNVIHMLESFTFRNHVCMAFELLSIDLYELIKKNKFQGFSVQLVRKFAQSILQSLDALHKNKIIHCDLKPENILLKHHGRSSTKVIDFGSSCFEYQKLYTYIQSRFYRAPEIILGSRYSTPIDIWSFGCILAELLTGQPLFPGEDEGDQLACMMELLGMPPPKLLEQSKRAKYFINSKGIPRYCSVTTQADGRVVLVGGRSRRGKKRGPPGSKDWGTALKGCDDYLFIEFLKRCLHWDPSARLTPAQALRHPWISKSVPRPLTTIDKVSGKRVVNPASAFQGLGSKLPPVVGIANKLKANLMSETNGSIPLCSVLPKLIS
Summed up:
(§1)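 With ATP fixed at 1 mM, each kinase was exposed to 1 μM compound in a PhosphoSens CSox-Sensor reaction. Sealed plates were incubated at 30° C. and read in kinetic mode.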

The target of another assay is T2, MYLK/MLCK (Homo sapiens, UniProt Q15746).
T2 construct: AssayQuant Technologies, Inc. (assay service)
Summed up:
as §1

For a further assay, the target named is T3, CDK7 (Homo sapiens, UniProt P50613).
T3 construct: AssayQuant Technologies, Inc. (ran the panel)
T3 sequence (P50613 whole entry, species assumed): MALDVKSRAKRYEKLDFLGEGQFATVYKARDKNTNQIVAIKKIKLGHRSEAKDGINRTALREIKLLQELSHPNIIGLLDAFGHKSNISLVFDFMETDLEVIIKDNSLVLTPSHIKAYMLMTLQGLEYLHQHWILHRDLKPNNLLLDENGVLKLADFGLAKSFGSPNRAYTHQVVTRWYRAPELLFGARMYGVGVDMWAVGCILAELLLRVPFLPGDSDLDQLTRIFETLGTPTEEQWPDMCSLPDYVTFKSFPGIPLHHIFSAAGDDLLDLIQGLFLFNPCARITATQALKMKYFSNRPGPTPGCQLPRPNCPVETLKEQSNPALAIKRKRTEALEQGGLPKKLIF
T3 sequence (P51946 whole entry partner, species assumed): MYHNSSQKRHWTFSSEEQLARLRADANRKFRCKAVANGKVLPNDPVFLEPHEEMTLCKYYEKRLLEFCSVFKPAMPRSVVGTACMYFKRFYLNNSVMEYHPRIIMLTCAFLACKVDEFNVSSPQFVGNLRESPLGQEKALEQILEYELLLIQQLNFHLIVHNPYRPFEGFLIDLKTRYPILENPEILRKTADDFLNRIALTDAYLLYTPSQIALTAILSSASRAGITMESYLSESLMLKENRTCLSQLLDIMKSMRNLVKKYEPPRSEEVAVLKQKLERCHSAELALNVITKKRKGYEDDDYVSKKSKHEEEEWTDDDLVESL
T3 sequence (P51948 whole entry partner, species assumed): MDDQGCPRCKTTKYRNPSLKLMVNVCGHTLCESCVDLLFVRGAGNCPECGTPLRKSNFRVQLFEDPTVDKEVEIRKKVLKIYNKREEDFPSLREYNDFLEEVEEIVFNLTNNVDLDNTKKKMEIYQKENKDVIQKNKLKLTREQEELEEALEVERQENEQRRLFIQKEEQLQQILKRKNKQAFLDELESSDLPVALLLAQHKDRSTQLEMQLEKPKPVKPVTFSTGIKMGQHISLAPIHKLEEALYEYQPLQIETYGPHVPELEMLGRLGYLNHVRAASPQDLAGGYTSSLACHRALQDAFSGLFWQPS
Summed up:
as §1

The next assay addresses T4, EPHB4 (Homo sapiens, UniProt P54760).
T4 sequence (P54760 16-987): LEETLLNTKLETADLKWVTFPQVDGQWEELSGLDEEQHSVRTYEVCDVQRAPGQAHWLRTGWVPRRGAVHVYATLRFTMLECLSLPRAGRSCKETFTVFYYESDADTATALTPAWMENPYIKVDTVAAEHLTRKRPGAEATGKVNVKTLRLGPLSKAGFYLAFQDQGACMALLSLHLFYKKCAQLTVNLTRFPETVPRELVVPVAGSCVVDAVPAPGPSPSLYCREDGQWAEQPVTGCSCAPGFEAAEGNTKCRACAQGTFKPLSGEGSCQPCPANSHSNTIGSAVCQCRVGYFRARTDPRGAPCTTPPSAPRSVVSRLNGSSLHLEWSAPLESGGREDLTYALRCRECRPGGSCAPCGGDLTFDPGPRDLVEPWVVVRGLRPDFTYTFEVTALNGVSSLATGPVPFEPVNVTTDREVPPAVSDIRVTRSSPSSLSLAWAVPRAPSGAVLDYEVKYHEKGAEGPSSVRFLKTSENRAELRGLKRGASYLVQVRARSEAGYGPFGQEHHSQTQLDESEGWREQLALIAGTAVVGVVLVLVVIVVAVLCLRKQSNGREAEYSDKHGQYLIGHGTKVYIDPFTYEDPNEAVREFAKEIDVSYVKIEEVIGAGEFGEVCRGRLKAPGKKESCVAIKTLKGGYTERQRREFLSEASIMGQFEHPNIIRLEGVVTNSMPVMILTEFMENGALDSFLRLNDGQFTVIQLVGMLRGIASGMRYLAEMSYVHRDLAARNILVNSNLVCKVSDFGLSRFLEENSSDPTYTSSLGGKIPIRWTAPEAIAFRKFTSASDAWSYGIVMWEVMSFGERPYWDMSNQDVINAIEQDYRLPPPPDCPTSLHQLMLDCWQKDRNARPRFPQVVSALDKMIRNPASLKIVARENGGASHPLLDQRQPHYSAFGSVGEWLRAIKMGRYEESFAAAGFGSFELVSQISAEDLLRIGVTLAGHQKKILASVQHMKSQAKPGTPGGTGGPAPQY
Summed up:
as §1

Another assay deals with ROCK2 (Homo sapiens, UniProt O75116). Summed up: as §1
ROCK2, sequence (O75116 whole entry, species assumed): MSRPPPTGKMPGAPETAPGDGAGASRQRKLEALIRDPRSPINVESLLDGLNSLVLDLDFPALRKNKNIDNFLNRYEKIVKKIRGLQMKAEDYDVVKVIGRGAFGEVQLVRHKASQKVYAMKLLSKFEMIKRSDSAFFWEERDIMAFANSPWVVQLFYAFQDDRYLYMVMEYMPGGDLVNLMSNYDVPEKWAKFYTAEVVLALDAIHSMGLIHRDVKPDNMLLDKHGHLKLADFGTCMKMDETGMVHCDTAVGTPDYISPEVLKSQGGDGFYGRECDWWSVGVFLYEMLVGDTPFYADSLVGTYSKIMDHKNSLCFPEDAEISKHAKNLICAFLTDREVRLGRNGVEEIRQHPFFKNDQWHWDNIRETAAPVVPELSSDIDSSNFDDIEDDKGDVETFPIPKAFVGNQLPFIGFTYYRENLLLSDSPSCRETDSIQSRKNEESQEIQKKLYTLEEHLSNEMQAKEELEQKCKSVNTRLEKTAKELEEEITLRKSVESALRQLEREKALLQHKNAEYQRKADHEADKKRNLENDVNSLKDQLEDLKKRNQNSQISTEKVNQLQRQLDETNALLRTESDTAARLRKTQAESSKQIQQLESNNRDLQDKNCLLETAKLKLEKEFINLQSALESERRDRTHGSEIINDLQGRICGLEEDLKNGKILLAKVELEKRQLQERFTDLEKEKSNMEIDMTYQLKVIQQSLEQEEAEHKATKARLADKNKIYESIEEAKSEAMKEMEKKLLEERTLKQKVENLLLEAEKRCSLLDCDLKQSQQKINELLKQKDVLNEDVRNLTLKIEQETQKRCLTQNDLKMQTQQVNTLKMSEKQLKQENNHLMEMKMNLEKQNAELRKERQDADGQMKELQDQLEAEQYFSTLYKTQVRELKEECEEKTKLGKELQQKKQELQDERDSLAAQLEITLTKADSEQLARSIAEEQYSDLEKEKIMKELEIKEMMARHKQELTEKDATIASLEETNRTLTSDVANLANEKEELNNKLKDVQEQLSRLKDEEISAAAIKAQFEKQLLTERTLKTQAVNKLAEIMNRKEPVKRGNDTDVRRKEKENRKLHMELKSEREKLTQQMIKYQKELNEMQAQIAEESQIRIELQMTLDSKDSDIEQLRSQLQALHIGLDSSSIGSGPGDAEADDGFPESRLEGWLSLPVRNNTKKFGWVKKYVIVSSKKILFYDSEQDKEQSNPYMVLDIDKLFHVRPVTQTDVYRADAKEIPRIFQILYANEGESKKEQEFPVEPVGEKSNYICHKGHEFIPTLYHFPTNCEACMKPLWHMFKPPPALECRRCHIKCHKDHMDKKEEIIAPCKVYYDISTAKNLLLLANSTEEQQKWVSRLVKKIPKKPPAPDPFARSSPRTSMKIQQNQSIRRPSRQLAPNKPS
The next assay addresses T5, HCK (Homo sapiens, UniProt P08631).
T5 construct: AssayQuant Technologies, Inc. (service provider)
Summed up: as §1

In the next assay the target is AURKB/AURB (Homo sapiens, UniProt Q96GD4). Summed up:
as §1

Another assay deals with T6, MARK2 (Homo sapiens, UniProt Q7KZI7).
T6 construct: AssayQuant Technologies, Inc. (assay service)
T6 sequence (Q7KZI7 whole entry, species assumed): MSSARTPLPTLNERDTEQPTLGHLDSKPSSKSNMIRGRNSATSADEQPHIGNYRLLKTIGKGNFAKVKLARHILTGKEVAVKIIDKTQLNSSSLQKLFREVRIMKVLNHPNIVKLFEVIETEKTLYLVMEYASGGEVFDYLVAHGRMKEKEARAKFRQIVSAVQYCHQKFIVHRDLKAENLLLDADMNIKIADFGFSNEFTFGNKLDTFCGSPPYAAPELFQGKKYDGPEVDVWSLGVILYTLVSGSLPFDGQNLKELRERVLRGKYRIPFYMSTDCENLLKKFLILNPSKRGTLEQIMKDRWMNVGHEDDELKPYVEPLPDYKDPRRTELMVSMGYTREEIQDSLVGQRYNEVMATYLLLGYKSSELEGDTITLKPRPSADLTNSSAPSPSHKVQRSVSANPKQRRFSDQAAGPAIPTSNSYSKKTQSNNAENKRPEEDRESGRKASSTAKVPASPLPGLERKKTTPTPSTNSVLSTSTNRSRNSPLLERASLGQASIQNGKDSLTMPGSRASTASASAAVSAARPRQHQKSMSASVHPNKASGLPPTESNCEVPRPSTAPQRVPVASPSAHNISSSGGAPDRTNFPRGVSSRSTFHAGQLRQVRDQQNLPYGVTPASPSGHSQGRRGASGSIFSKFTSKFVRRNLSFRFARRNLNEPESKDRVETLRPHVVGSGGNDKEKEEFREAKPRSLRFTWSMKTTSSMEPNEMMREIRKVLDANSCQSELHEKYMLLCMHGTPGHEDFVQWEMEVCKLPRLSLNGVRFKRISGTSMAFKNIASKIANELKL
Summed up: as §1

The target in the next assay is PRKCA/PKCA (Homo sapiens, UniProt P17252). Summed up:
as §1

The next assay has as its target AKT1 (Homo sapiens, UniProt P31749). Summed up: as §1
A further assay deals with T7, CDK1/B1 (Homo sapiens, UniProt P06493).
T7 construct: AssayQuant Technologies, Inc. (ran the panel)
T7 sequence (P06493 whole entry, species assumed): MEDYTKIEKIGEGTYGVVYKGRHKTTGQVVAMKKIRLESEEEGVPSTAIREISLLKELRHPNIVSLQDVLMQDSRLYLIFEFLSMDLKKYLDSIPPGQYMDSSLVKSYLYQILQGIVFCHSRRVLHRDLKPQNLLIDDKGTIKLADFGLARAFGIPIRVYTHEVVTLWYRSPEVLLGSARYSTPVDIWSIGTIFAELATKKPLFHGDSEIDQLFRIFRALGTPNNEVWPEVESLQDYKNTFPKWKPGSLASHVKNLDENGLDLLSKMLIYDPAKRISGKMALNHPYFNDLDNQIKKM
T7 sequence (P14635 whole entry partner, species assumed): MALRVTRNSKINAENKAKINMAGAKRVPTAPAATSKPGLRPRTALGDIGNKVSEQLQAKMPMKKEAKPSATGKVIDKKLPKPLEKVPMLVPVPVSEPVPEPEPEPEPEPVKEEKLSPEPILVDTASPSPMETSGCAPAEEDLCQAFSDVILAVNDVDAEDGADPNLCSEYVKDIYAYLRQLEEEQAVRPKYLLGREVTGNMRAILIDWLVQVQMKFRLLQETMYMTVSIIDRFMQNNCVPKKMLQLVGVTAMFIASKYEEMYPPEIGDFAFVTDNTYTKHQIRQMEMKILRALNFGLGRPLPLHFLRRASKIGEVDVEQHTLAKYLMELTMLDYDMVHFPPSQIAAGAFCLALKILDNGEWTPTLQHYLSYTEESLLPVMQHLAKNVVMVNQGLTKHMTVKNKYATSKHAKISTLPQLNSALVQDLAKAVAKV
Summed up:
as §1

A word on the inhibition: it is the relative decrease from the control value, in per cent.

AKT1, sequence (P31749 whole entry): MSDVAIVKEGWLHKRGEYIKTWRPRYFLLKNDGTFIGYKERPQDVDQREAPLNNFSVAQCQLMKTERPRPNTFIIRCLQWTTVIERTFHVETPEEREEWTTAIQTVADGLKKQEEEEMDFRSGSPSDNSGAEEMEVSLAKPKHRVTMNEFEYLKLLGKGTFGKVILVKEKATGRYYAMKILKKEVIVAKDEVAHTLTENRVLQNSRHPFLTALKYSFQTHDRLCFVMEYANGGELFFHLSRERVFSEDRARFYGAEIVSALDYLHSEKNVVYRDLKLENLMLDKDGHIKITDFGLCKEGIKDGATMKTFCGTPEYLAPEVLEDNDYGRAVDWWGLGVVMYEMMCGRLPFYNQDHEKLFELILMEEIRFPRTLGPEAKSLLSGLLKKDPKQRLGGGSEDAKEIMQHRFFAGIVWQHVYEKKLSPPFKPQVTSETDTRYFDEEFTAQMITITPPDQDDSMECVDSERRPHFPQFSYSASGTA
AURKB/AURB, sequence (Q96GD4 whole entry): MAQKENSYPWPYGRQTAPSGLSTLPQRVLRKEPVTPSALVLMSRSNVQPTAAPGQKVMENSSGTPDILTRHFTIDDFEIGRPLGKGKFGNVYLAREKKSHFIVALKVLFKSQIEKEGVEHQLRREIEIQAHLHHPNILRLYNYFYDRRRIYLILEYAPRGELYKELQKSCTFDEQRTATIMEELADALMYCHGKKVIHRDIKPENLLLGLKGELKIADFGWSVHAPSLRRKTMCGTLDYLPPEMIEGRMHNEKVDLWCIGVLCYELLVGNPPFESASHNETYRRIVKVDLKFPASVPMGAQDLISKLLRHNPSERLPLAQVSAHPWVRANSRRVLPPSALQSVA

Take `C=CC(=O)N1CCCC(c2c(F)cc(C(N)=O)c3[nH]c4c(c23)CCCCC4)C1` (single isomer, unassigned) [Compound 5-6]: the inhibition at 1 µM against DYRK3 was 2.8%; against MYLK/MLCK, 19.7%; against CDK7, -10.1%; on EPHB4 it was 7%; against ROCK2 it was -28.3%; against HCK it was 6.8%. The inhibition at 1 µM against AURKB/AURB was -19%; at MARK2, 11.8%; against PRKCA/PKCA, 2.3%; against AKT1 it was 20%; against CDK1/B1 it was -13.7%.
As for `C=CC(=O)N1CCC[C@@H](c2c(F)cc(C(N)=O)c3[nH]c4c(c23)CC2(CC4)CC2)C1` [Compound 6-2, (S)-5-(1-acryloylpiperidin-3-yl)-6-fluoro-1,2,4,9-tetrahydrospiro[carbazole-3,1′-cyclopropane]-8-carboxamide], the inhibition at 1 µM against DYRK3 is -4.9%; against MYLK/MLCK, -24%; against CDK7 it was -6%; on EPHB4, 7.4%; at ROCK2, 0.8%; against HCK it was 2.8%. For the same compound, the inhibition at 1 µM at AURKB/AURB was -11.5%; at MARK2 it was -33.3%; at PRKCA/PKCA, 14.7%; against AKT1 it was -17%; against CDK1/B1 it was -9.5%.
For `C=CC(=O)N1CCC[C@@H](c2c(F)cc(C(N)=O)c3[nH]c4c(c23)CCC4)C1` [Compound 10-2, (S)-8-(1-acryloylpiperidin-3-yl)-7-fluoro-1,2,3,4-tetrahydrocyclo-penta[b]indole-5-carboxamide], the inhibition at 1 µM against DYRK3 was -3.3%; at MYLK/MLCK it was -27.4%; at CDK7, 14.1%; against EPHB4 it was -8.5%; at ROCK2 it was 21.2%; at HCK it was -5.8%. Moreover, the inhibition at 1 µM was -14.9% against AURKB/AURB; -8.8% on MARK2; -3.5% against PRKCA/PKCA; -14.8% on AKT1; -3.8% at CDK1/B1.
